What was measured:
Assay type in all cases: cell-based, human
[1] = tested on: Aiolos; experiment: Intracellular Aiolos expression in stimulated anti-CD19 CAR-expressing T cells (flow cytometry MFI)
Description: (§1) T cell compositions containing anti-CD19 CAR-expressing T cells were generated from leukapheresis samples from three healthy human adult donors by a process including immunoaffinity-based selection of T cells (including CD4+ and CD8+ cells) from the samples, resulting in two compositions, enriched for CD8+ and CD4+ cells, respectively. The cells were incubated in the presence of (S)-3-[4-(4-morpholin-4-ylmethyl-benzyloxy)-1-oxo-1,3-dihydro-isoindol-2-yl]-piperidine-2,6-dione (Compound A) or 3-(5-amino-2-methyl-4-oxo-4H-quinazolin-3-yl)-piperidine-2,6-dione (Compound B), and expression of the transcription factors Ikaros and Aiolos was assessed. Cells of the enriched CD4+ and CD8+ compositions were separately activated with anti-CD3/anti-CD28 beads and subjected to lentiviral transduction with a vector encoding an anti-CD19 CAR. The anti-CD19 CAR contained an anti-CD19 scFv derived from a murine antibody (variable region derived from FMC63), an immunoglobulin-derived spacer, a transmembrane domain derived from CD28, a costimulatory region derived from 4-1BB, and a CD3-zeta intracellular signaling domain. The expression construct in the viral vector further contained sequences encoding a truncated receptor, which served as a surrogate marker for CAR expression, which was separated from the CAR sequence by a T2A ribosome skip sequence. Transduced populations then were separately incubated in the presence of stimulating reagents for cell expansion. Expanded CD8+ and CD4+ cells were formulated and cryopreserved separately and stored. The cryopreserved CD4+ and CD8+ anti-CD19 CAR-expressing cells from each donor were thawed, and combined at approximately a 1:1 CAR+CD4+:CD8+ ratio prior to use. Approximately 2.5×10^5 cells of the generated CAR+ T cell composition were stimulated overnight with 1 μg/ml of a CAR-specific anti-idiotypic antibody in the presence of 3-(5-amino-2-methyl-4-oxo-4H-quinazolin-3-yl)-piperidine-2,6-dione (Compound B) or (S)-3-[4-(4-morpholin-4-ylmethyl-benzyloxy)-1-oxo-1,3-dihydro-isoindol-2-yl]-piperidine-2,6-dione (Compound A) at concentrations ranging from 10 to 10000 nM or a vehicle control overnight at 37° C., 5% C02. Following overnight incubation, anti-CD19 CAR-expressing T cells were stained with antibodies and analyzed by flow cytometry to assess intracellular levels of Ikaros and Aiolos in CD4+ CAR+ or CD8+ CAR+ cells, as measured by median fluorescence intensity (MFI). Median fluorescence intensity (MFI) values for Ikaros and Aiolos were normalized and calculated as a percentage relative to vehicle control. […] The EC50 for reducing Aiolos and Ikaros expression was calculated as determined from the concentration of the inhibitor that reduced Aiolos or Ikaros MFI to 50% of its maximal MFI in the absence of the inhibitor.

[2] = tested on: RL cells; experiment: Rescue of chronically stimulated CAR T cells cultured with RL cells; conditions: Compound B 1 μM, Compound A 0.001, 0.01 or 0.1 μM
Description: The RL cells were further used to assess the ability of immunomodulatory compounds to rescue or reverse the anti-CD19 CAR T cells from exhaustion. Anti-CD19 CAR-expressing T cells were stimulated under conditions to induce chronic stimulation and then were subsequently treated (rescue) with Compound B (1 μM) or Compound A (0.001 μM, 0.01 μM or 0.1 μM), or a vehicle control. Long-term, chronic stimulation was carried out by stimulation of CAR T cells with 30 μg/mL plate-bound anti-idiotypic (anti-ID) antibody for 6 days, substantially as described in Example 3. After the chronic stimulation, the CAR-T cells were cultured with RL cells in the presence of Compound B or Compound A. Cytolytic activity was assessed over time by measuring tumor cell number in the culture.

[3] = tested on: RL tumor spheroids; experiment: RL tumor spheroid model with anti-CD19 CAR T cells; conditions: Day 4; 1 μM Compound B, 0.01 μM or 0.1 μM Compound A
Description: Cytolytic activity was also assessed in a spheroid model. About 5,000 RL cells were plated 48 hours prior to addition of 5,000 anti-CD19 CAR T cells (1:1 E:T ratio). Anti-CD19 CAR T cells were co-cultured with RL tumor spheroids, in the presence of Compound B (1 μM) or Compound A (0.001 μM, 0.01 μM or 0.1 μM)).

[4] = tested on: Ikaros; experiment: Intracellular Ikaros expression in stimulated anti-CD19 CAR-expressing T cells (flow cytometry MFI)
Description: as §1

[5] = overnight incubation, 1 μg/ml anti-idiotypic antibody, average of donors (range, 95% confidence interval)

Question: Which results are given for `Cc1nc2cccc(N)c2c(=O)n1C1CCC(=O)NC1=O` (stereo not drawn) [Compound B, 3-(5-amino-2-methyl-4-oxo-4H-quinazolin-3-yl)-piperidine-2,6-dione, reference compound]?
Answer: intracellular Aiolos expression ([1]; 10 to 10000 nM, overnight): […]; EC50 [1, 5]: […]; CAR T cell cytolytic activity, RL cell growth [2]: substantially improved; sensitivity of RL tumor spheroids to compound [3]: sensitive; intracellular Ikaros expression ([4]; 10 to 10000 nM, overnight): […]; EC50 [4, 5]: […]

Reference: patent publication US20220401483A1, “COMBINATION OF A T CELL THERAPY AND (S)-3-[4-(4-MORPHOLIN-4-YLMETHYL-BENZYLOXY)-L-OXO-L,3-DIHYDRO-ISOINDOL-2-YL]-PIPERIDINE-2,6-DIONE” (Juno Therapeutics, Inc., priority 2019, published 2022)
